# Test results published in paper PMC7601999 (Journal of the American Chemical Society, 2020).
# Residues, ends and D or L forms follow the SMILES beside them.
# Columns and labels:
# NOD2 LRR [1] = biological target: T1, NOD2 LRR (Homo sapiens, UniProt Q9HC29); conditions: read-out: Surface KD, NOD2, SPR, previously reported surface KD; cited from earlier work
# NLRP1 LRR = biological target: T2, NLRP1 LRR (Homo sapiens, UniProt Q9C000); assay: SPR assay, NLRP1 LRR binding to surface-tethered PG derivatives; conditions: for Decrease in affinity compared to intact MDP (1): NLRP1 LRR, SPR surface KD; for Binding to non-PG derived compound tethered to SPR surface: NLRP1, specificity control (Figure S8)
# T2 sequence (Q9C000 791-990): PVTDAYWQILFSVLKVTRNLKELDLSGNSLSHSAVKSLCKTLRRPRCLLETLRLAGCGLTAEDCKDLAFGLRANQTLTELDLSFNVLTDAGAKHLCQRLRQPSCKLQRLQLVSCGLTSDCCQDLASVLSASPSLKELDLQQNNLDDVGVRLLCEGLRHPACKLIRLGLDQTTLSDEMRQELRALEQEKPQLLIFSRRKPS
# NOD2 LRR [2] = biological target: T1, NOD2 LRR; assay: SPR assay, NOD2 LRR binding to surface-tethered PG derivatives; conditions: specificity control (Figure S8)
# [3] = test system: NOD2 R877 to alanine mutant; conditions: R877A versus wild-type NOD2; cited from earlier work
# T1 sequence (Q9HC29 765-1040 limits assumed): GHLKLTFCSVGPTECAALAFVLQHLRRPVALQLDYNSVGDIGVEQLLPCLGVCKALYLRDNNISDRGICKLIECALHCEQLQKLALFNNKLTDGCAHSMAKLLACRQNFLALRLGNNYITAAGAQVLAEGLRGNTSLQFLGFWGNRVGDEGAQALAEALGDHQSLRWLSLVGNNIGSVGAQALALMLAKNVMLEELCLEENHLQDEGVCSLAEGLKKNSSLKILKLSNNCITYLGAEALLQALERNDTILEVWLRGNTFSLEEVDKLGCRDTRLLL
compound,measurement,setting,value
6-amino MDP [Compound 1],Kd,NOD2 LRR [1],213 ± 24 nM
6 -amino GlcNAc [Compound 2],Kd,NOD2 LRR [1],354 ± 40 nM
same,Decrease in affinity compared to intact MDP (1),NLRP1 LRR,2 fold
"C[C@H](N)C(=O)N[C@H](CCC(=O)O)C(N)=O [Compound 3, L-ala D-iso dipeptide] (HELM PEPTIDE1{A.[dE].[am]}$$$$V2.0)",Kd,NOD2 LRR [1],428 ± 49 nM
same,Decrease in affinity compared to intact MDP (1),NLRP1 LRR,2 fold
1-amino MDP [Compound 6],Kd,NOD2 LRR [1],700 ± 100 nM
"C[C@H](N)C(=O)N[C@@H](C)C(=O)N[C@@H](C)C(=O)O [L-alanine tripeptide, reference compound]",Binding to non-PG derived compound tethered to SPR surface,NLRP1 LRR,did not exhibit binding
same,Binding to non-PG derived compound tethered to SPR surface,NOD2 LRR [2],did not exhibit binding
"CC(=O)N[C@H]1C(O)O[C@H](CO)[C@@H](O)[C@@H]1O[C@H](C)C(=O)N[C@@H](C)C(=O)N[C@H](CCC(=O)O)C(N)=O (mixture of isomers) [MDP, muramyl dipeptide]",Decrease in affinity of NOD2 for MDP on mutation of R877 to alanine,[3],4 fold
"N[C@H]1C(O)O[C@H](CO)[C@H](O)[C@@H]1O (some centres unmarked) [galactosamine, reference compound]",Binding to non-PG derived compound tethered to SPR surface,NLRP1 LRR,did not exhibit binding
same,Binding to non-PG derived compound tethered to SPR surface,NOD2 LRR [2],did not exhibit binding
